Assay results as given in US20230338532A1, “IMMUNOSUPPRESSANT DRUG RESISTANT ARMORED TCR T CELLS FOR IMMUNE-THERAPY OF ORGAN TRANSPLANT PATIENTS” (priority 2020, published 2023).

Key:
Type in all cases: cell-based, human
HepG2.2.15 cells [1] = assay: TNF-α production of TCR T cells after overnight co-culture with HepG2.2.15 cells; settings: clinically relevant concentration
Protocol: FIGS. 1A and 1B show functional profiles of 5183-electroporated T cells treated with tacrolimus. Cytokine production (TNF-α as a representative) of drug-treated S183 TCR-T cells was evaluated following overnight co-culture with HepG2.215 cells. FIG. 1A: Concatenated dot plots (left panel) from representative experiments stained for TNF-α production. […] Non-treated electroporated T cells used as negative control. FIG. 1B: Drug effect on T cell cytolysis determined through impedance measurement. The Normalized Cell Index plot was converted to an area under the curve, and quantified to measure the percentage of cytolysis ˜45 hours after S183-TCR T cell addition. […] Statistical significance was evaluated by 2-tailed t test. […]
FIG. 3A: S183 TCR and mutant CnB m-RNA were co-electroporated and T cell function was evaluated following overnight co-culture with HepG2.2.15 cells. FIG. 3B: Viability and TCR expression of engineered T cells evaluated 24 hours post-electroporation. […] FIG. 3C: Frequency of TNF-α-producing CD8+ cells out of total live CD8+ T cells were quantified following overnight incubation with the targets (n=3). […]
FIG. 5A: Sequence information of siRNA specific for FKBP1A. FIG. 5B: Frequency of TNF-α-producing CD8+ cells out of total live CD8+ T cells were quantified following overnight incubation with the targets and different concentrations of Tacrolimus (n=3). […]

HepG2.2.15 cells [2] = assay: T cell cytolysis by impedance measurement (real time killing assay); settings: clinically relevant doses, FIG. 1B
Protocol: FIGS. 1A and 1B show functional profiles of 5183-electroporated T cells treated with tacrolimus. Cytokine production (TNF-α as a representative) of drug-treated S183 TCR-T cells was evaluated following overnight co-culture with HepG2.215 cells. FIG. 1A: Concatenated dot plots (left panel) from representative experiments stained for TNF-α production. […] Non-treated electroporated T cells used as negative control. FIG. 1B: Drug effect on T cell cytolysis determined through impedance measurement. The Normalized Cell Index plot was converted to an area under the curve, and quantified to measure the percentage of cytolysis ˜45 hours after S183-TCR T cell addition. Each dot represents one individual experiment in bar graphs. Statistical significance was evaluated by 2-tailed t test. […]
FIGS. 6A, 6B and 6C show dual-resistant TCR-redirected T cells were produced by electroporating 3 mRNAs (HBV TCR, CnB mutant and IMPDH mutant) into the T cells. FIG. 6A: Frequency of TNF-α-producing CD8+ cells out of total live CD8 T cells was quantified following overnight incubation with the targets (n=3). […] FIG. 6B: T cell cytolysis determined by real time killing assay in the presence and absence of both drugs. […] FIG. 6C: Viability of dual resistant TCR-T cells evaluated 72 hours after exposure to clinically relevant concentration of both drugs.

T cells = assay: Viability of engineered T cells exposed to immunosuppressants; settings: clinically relevant concentration, 48 hours exposure
Protocol: Intracellular cytokine staining and viability analysis were performed at the indicated time after treatment.

C=CC[C@@H]1/C=C(\C)C[C@H](C)C[C@H](OC)[C@H]2O[C@@](O)(C(=O)C(=O)N3CCCC[C@H]3C(=O)O[C@H](/C(C)=C/[C@@H]3CC[C@@H](O)[C@H](OC)C3)[C@H](C)[C@@H](O)CC1=O)[C@H](C)C[C@@H]2OC [Tacrolimus]
effect on T cell TNF-α production (HepG2.2.15 cells [1]; 12 hours incubation with HepG2.2.15 cells): can impair T cell TNF-α production | loss of cytolytic activity of treated T cells (HepG2.2.15 cells [2]): ≤ 50 % of the non-treated control

COc1c(C)c2c(c(O)c1C/C=C(\C)CCC(=O)OCCN1CCOCC1)C(=O)OC2 [MMF, Mycophenolate mofetil]
effect on T cell function and killing (HepG2.2.15 cells [1]): does not impair T cell function and killing | effect on viability of modified TCR-T cells (T cells): markedly decreases the viability
